Earlier results as cited in US10912741B2, “Prevention of liver cancer with safranal-based formulations” (United Arab Emirates University, priority 2019, dated 2021).

System: HeLa cells
Conditions: reported in the background; cited from earlier work

Row | Structure (SMILES) | growth of HeLa cells
1 | CC1=C(C=O)C(C)(C)C[C@H](O[C@@H]2O[C@H](CO)[C@@H](O)[C@H](O)[C@H]2O)C1 [picrocrocin] | inhibit the growth of HeLa cells
2 | CC(/C=C/C=C(\C)C(=O)O[C@@H]1O[C@H](CO[C@@H]2O[C@H](CO)[C@@H](O)[C@H](O)[C@H]2O)[C@@H](O)[C@H](O)[C@H]1O)=C\C=C\C=C(C)\C=C\C=C(/C)C(=O)O[C@@H]1O[C@H](CO[C@@H]2O[C@H](CO)[C@@H](O)[C@H](O)[C@H]2O)[C@@H](O)[C@H](O)[C@H]1O [crocin] | inhibit the growth of HeLa cells
